Measured values as given in the NIST ThermoML archive (doi:10.1016/j.fluid.2008.03.009).
Numbers after ± are expanded uncertainties.

Conditions: Liquid, Vibrating tube method

CCCO [propan-1-ol]
Conditions	mass density [kg/m3]
298.15 K, 110 kPa	799.54 ± 0.11
298.15 K, 5270 kPa	803.6 ± 0.2
298.15 K, 9870 kPa	807.01 ± 0.22
298.15 K, 14700 kPa	810.46 ± 0.25
298.15 K, 20530 kPa	814.46 ± 0.27
298.15 K, 25030 kPa	817.44 ± 0.3
298.15 K, 30100 kPa	820.7 ± 0.32
298.15 K, 35010 kPa	823.76 ± 0.34
298.15 K, 39560 kPa	826.52 ± 0.37
323.15 K, 590 kPa	779.78 ± 0.12
323.15 K, 5940 kPa	784.71 ± 0.21
323.15 K, 10600 kPa	788.81 ± 0.24
323.15 K, 16000 kPa	793.2 ± 0.27
323.15 K, 20640 kPa	796.73 ± 0.29
323.15 K, 24880 kPa	799.83 ± 0.31
323.15 K, 30800 kPa	803.99 ± 0.35
323.15 K, 35220 kPa	807.01 ± 0.37
323.15 K, 39790 kPa	810.02 ± 0.4
348.15 K, 140 kPa	757.11 ± 0.13
348.15 K, 5170 kPa	762.68 ± 0.22
348.15 K, 10260 kPa	767.5 ± 0.25
348.15 K, 15790 kPa	772.52 ± 0.28
348.15 K, 20560 kPa	776.41 ± 0.31
348.15 K, 24810 kPa	780.32 ± 0.34
348.15 K, 29300 kPa	784.09 ± 0.36
348.15 K, 35560 kPa	789.01 ± 0.4
348.15 K, 39950 kPa	792.23 ± 0.43
373.15 K, 360 kPa	733.24 ± 0.14
373.15 K, 5480 kPa	739.29 ± 0.23
373.15 K, 10290 kPa	745.11 ± 0.26
373.15 K, 15700 kPa	750.9 ± 0.3
373.15 K, 19960 kPa	755.19 ± 0.33
373.15 K, 25170 kPa	760.17 ± 0.36
373.15 K, 30510 kPa	765.02 ± 0.4
373.15 K, 35920 kPa	769.7 ± 0.44
373.15 K, 39780 kPa	772.91 ± 0.47
398.15 K, 620 kPa	705.55 ± 0.16
398.15 K, 5670 kPa	713.23 ± 0.24
398.15 K, 10620 kPa	720.1 ± 0.28
398.15 K, 15580 kPa	726.46 ± 0.32
398.15 K, 20350 kPa	732.35 ± 0.35
398.15 K, 25090 kPa	737.77 ± 0.39
398.15 K, 31150 kPa	744.07 ± 0.44
398.15 K, 35410 kPa	748.41 ± 0.48
398.15 K, 39390 kPa	752.32 ± 0.51
423.15 K, 1570 kPa	674.63 ± 0.18
423.15 K, 5870 kPa	682.79 ± 0.26
423.15 K, 10160 kPa	690.93 ± 0.3
423.15 K, 15320 kPa	699.32 ± 0.34
423.15 K, 20500 kPa	707.2 ± 0.38
423.15 K, 26280 kPa	715.01 ± 0.44
423.15 K, 31600 kPa	721.36 ± 0.49
423.15 K, 35780 kPa	726.03 ± 0.52
423.15 K, 39700 kPa	730.17 ± 0.56
